A word on the melting point: it is the temperature, or range, at which the solid turns liquid.

Melting point data for 41 compounds are collected here from patent publication US8053581B2, “Trisubstituted thiazole compounds, preparations methods, pharmaceutical compositions and medicals uses thereof” (Institute of Pharmacology and Toxicology Academy of …, priority 2006, dated 2011).

On to `COc1ccc(-c2nc(NC(=O)c3ccc(OC)c(OC)c3)sc2CC2CCCCC2)cc1` [Example 48, N-[5-cyclohexylmethyl-4-(4-methoxy-phenyl)-thiazol-2-yl]-3,4-dimethoxy-benzamide], for which the melting point lay in the range of 171 to 172 °C.
For `COc1ccc(-c2nc(NC(=O)c3ccc(F)cc3)sc2Cc2ccc([N+](=O)[O-])cc2)cc1` [Example 10, 4-fluoro-N-[4-(4-methoxy-phenyl)-5-(4-nitro-benzyl)-thiazol-2-yl]-benzamide], the melting point fell in the range of 188 to 189 °C.
Under `O=C(Nc1nc(-c2ccc(O)cc2)c(Cc2ccccc2)s1)c1ccccc1O` [Example 39, N-[5-benzyl-4-(4-hydroxy-phenyl)-thiazol-2-yl]-2-hydroxy-benzamide] stands 279 to 280 °C; under `COc1ccc(-c2nc(NC(=O)c3cccc(OC)c3)sc2Cc2ccccc2)cc1` [Example 42, N-[5-benzyl-4-(4-methoxy-phenyl)-thiazol-2-yl]-3-methoxy-benzamide], 71 to 72 °C.
Consider `O=C(Nc1nc(-c2ccc(F)cc2)c(Cc2ccc([N+](=O)[O-])cc2)s1)c1cc(F)cc(F)c1` [Example 18, 3,5-difluoro-N-[4-(4-fluoro-phenyl)-5-(4-nitro-benzyl)-thiazol-2-yl]-benzamide], for which the melting point was in the range of 216 to 218 °C.
Compound `COc1ccc(-c2nc(NC(=O)c3ccc(Cl)cc3)sc2Cc2ccccc2)cc1` [Example 5, N-[5-benzyl-4-(4-methoxy-phenyl)-thiazol-2-yl]-4-chloro-benzamide] returned a melting point of 182 to 183 °C.
`CCCCc1sc(NC(=O)c2ccc(OC)c(OC)c2)nc1-c1ccc(OC)cc1` [Example 63, N-[5-n-butyl-4-(4-methoxy-phenyl)-thiazol-2-yl]-3,4-dimethoxy-benzamide] had a melting point of 150 to 151 °C.
Then `O=C(Nc1nc(-c2ccc(F)cc2)c(Cc2ccc([N+](=O)[O-])cc2)s1)c1ccc(F)cc1` [Example 11, 4-fluoro-N-[4-(4-fluoro-phenyl)-5-(4-nitro-benzyl)-thiazol-2-yl]-benzamide], with 120 to 122 °C; and `COc1ccc(-c2nc(NC(=O)c3cc(OC)c(OC)c(OC)c3)sc2CCc2ccccc2)cc1` [Example 59, 3,4,5-trimethoxy-N-[4-(4-methoxy-phenyl)-5-phenylethyl-thiazol-2-yl]-benzamide], with 78 to 79 °C; and `COc1ccc(-c2nc(N(S(=O)(=O)c3ccc(C)cc3)S(=O)(=O)c3ccc(C)cc3)sc2Cc2ccccc2)cc1` [Example 67, N-[5-benzyl-4-(4-methoxy-phenyl)-thiazol-2-yl]-N-p-tolylsulfonyl-p-tolylsulfonamide], with 182 to 183 °C.
Then `COc1ccc(-c2nc(NC(=O)c3cc(F)cc(F)c3)sc2Cc2ccc(F)cc2)cc1` [Example 22, 3,5-difluoro-N-[5-(4-fluoro-benzyl)-4-(4-methoxy-phenyl)-thiazol-2-yl]-benzamide], with 175 to 176 °C; and `COc1ccc(-c2nc(NC(=O)CCc3ccc(OC)c(OC)c3)sc2Cc2ccccc2)cc1` [Example 68, N-[5-benzyl-4-(4-methoxy-phenyl)-thiazol-2-yl]-3-(3,4-dimethoxy-phenyl)-propanamide], with 142 to 143 °C.
In turn, `COc1ccc(-c2nc(NC(=O)c3ccc(F)cc3)sc2Cc2ccc(F)cc2)cc1` [Example 23, 4-fluoro-N-[5-(4-fluoro-benzyl)-4-(4-methoxy-phenyl)-thiazol-2-yl]-benzamide] yielded a melting point of 184 to 185 °C.
`COc1ccc(C(=O)Nc2nc(-c3ccc(F)cc3)c(Cc3ccc([N+](=O)[O-])cc3)s2)cc1OC` [Example 20, N-[4-(4-fluoro-phenyl)-5-(4-nitro-benzyl)-thiazol-2-yl]-3,4-dimethoxy-benzamide] yielded a melting point of 128 to 129 °C.
Then `Nc1nc(-c2ccccc2)c(Cc2ccc([N+](=O)[O-])cc2)s1` [Example 26, 5-(4-nitro-benzyl)-4-phenyl-thiazol-2-ylamine], with 215 to 216 °C; and `O=C(Nc1nc(-c2ccc(O)cc2)c(Cc2ccccc2)s1)c1ccc(O)cc1` [Example 46, N-[5-benzyl-4-(4-hydroxy-phenyl)-thiazol-2-yl]-4-hydroxy-benzamide], with 254 to 255 °C.
Under `COc1ccc(C(=O)Nc2nc(-c3ccc(OC)cc3)c(Cc3ccccc3)s2)cc1` [Example 27, N-[5-benzyl-4-(4-methoxy-phenyl)-thiazol-2-yl]-4-methoxy-benzamide] stands 58 to 59 °C.
Under `COc1ccc(-c2nc(NC(=O)c3ccc(F)cc3)sc2Cc2ccccc2)cc1` [Example 4, N-[5-benzyl-4-(4-methoxy-phenyl)-thiazol-2-yl]-4-fluoro-benzamide] stands 164 to 165 °C.
For the compound `COc1ccc(-c2nc(NC(=O)c3ccccc3)sc2Cc2ccccc2)cc1` [Example 3, N-[5-benzyl-4-(4-methoxy-phenyl)-thiazol-2-yl]-benzamide], the melting point lay within 146 to 147 °C.
Under `O=C(Nc1nc(-c2ccc(O)cc2)c(Cc2ccccc2)s1)c1cccc(O)c1` [Example 44, N-[5-benzyl-4-(4-hydroxy-phenyl)-thiazol-2-yl]-3-hydroxy-benzamide] stands 233 to 234 °C; under `COc1ccc(-c2nc(NC(=O)c3ccc(OC)c(OC)c3)sc2C)cc1` [Example 54, 3,4-dimethoxy-N-[4-(4-methoxy-phenyl)-5-methyl-thiazol-2-yl]-benzamide], 174 to 175 °C; under `COc1ccc(-c2nc(NC(=O)c3cc(OC)c(OC)c(OC)c3)sc2CC2CCCCC2)cc1` [Example 50], 193 to 194 °C.
Consider `O=C(Nc1nc(-c2ccc(O)cc2)c(Cc2ccccc2)s1)c1cc(O)cc(O)c1` [Example 45, N-[5-benzyl-4-(4-hydroxy-phenyl)-thiazol-2-yl]-3,5-dihydroxy-benzamide], for which the melting point was 262 to 263 °C.
Then `COc1ccc(-c2nc(NC(=O)c3cc(F)cc(F)c3)sc2Cc2ccccc2)cc1` [Example 16, N-[5-benzyl-4-(4-methoxy-phenyl)-thiazol-2-yl]-3,5-difluoro-benzamide], with 154 to 155 °C.
Then `COc1ccc(-c2nc(NC(=O)c3ccc(OC)c(OC)c3)sc2CCc2ccccc2)cc1` [Example 58, 3,4-dimethoxy-N-[4-(4-methoxy-phenyl)-5-phenylethyl-thiazol-2-yl]-benzamide], with 74 to 75 °C; and `COc1ccc(-c2nc(N(C(=O)c3ccc(OC)c(OC)c3)C(=O)c3ccc(OC)c(OC)c3)sc2Cc2ccc(F)cc2)cc1` [Example 24], with 136 to 137 °C.
`COc1ccc(-c2nc(NC(=O)c3ccc(C#N)cc3)sc2Cc2ccc(F)cc2)cc1` [Example 25, 4-cyano-N-[5-(4-fluoro-benzyl)-4-(4-methoxy-phenyl)-thiazol-2-yl]-benzamide] yielded a melting point of 191 to 192 °C.
Under `Nc1nc(-c2ccc(O)cc2)c(Cc2ccccc2)s1` [Example 2, 5-benzyl-4-(4-hydroxy-phenyl)-thiazol-2-ylamine] stands 170 to 172 °C; under `OCCN(CCO)c1nc(-c2ccc(O)cc2)c(Cc2ccccc2)s1` [Example 76, 4-(5-benzyl-2-[bis-(2-hydroxy-ethyl)-amino]-thiazol-4-yl)-phenol], 167 to 168 °C; under `N#Cc1ccc(C(=O)Nc2nc(-c3ccc(F)cc3)c(Cc3ccc([N+](=O)[O-])cc3)s2)cc1` [Example 15, 4-cyano-N-[4-(4-fluoro-phenyl)-5-(4-nitro-benzyl)-thiazol-2-yl]-benzamide], 244 to 245 °C.
Turning to `CCCCc1sc(NC(=O)c2cc(OC)c(OC)c(OC)c2)nc1-c1ccc(OC)cc1` [Example 64, N-[5-n-butyl-4-(4-methoxy-phenyl)-thiazol-2-yl]-3,4,5-trimethoxy-benzamide], the melting point is 197 to 198 °C.
In the case of `COc1ccc(-c2nc(N)sc2C)cc1` [Example 52, 4-(4-methoxy-phenyl)-5-methyl-thiazol-2-ylamine], the melting point lay within 139 to 140 °C.
In the case of `COc1ccc(-c2nc(NC(=O)c3ccccc3OC)sc2Cc2ccccc2)cc1` [Example 36, N-[5-benzyl-4-(4-methoxy-phenyl)-thiazol-2-yl]-2-methoxy-benzamide], the melting point fell in the range of 147 to 148 °C.
`O=C(Nc1nc(-c2ccc(O)cc2)c(Cc2ccccc2)s1)c1ccc(F)cc1` [Example 7, N-[5-benzyl-4-(4-hydroxy-phenyl)-thiazol-2-yl]-4-fluoro-benzamide] returned a melting point of 205 to 206 °C.
Then `COc1ccc(-c2nc(NC(=O)c3cc(OC)c(OC)c(OC)c3)sc2C)cc1` [Example 53, 3,4,5-trimethoxy-N-[4-(4-methoxy-phenyl)-5-methyl-thiazol-2-yl]-benzamide], with 105 to 106 °C; and `COc1ccc(-c2nc(N)sc2Cc2ccccc2)cc1` [Example 1, 5-benzyl-4-(4-methoxy-phenyl)-thiazol-2-ylamine], with 177 to 178 °C.
Under `COc1ccc(-c2nc(NC(=O)c3cc(OC)cc(OC)c3)sc2Cc2ccccc2)cc1` [Example 43, N-[5-benzyl-4-(4-methoxy-phenyl)-thiazol-2-yl]-3,5-dimethoxy-benzamide] stands 152 to 153 °C; under `Nc1nc(-c2ccc(F)cc2)c(Cc2ccc([N+](=O)[O-])cc2)s1` [Example 9, 4-(4-fluoro-phenyl)-5-(4-nitro-benzyl)-thiazol-2-ylamine], 217 to 218 °C.
Under `COc1ccc(-c2nc(N)sc2Cc2ccc([N+](=O)[O-])cc2)cc1` [Example 6, 4-(4-methoxy-phenyl)-5-(4-nitro-benzyl)-thiazol-2-ylamine] stands 209 to 210 °C; under `Oc1ccc(-c2nc(CCc3ccc(O)c(O)c3)sc2Cc2ccccc2)cc1` [Example 78, 4-{2-[5-benzyl-4-(4-hydroxy-phenyl)-thiazol-2-yl]-ethyl}-benzene-1,2-diol], 177 to 178 °C; under `COc1ccc(-c2nc(NC(=O)c3ccc(C#N)cc3)sc2Cc2ccc([N+](=O)[O-])cc2)cc1` [Example 14, 4-cyano-N-[4-(4-methoxy-phenyl)-5-(4-nitro-benzyl)-thiazol-2-yl]-benzamide], 190 to 192 °C.
